Drawing on PubChem BioAssay AID192 (DTP/NCI, 2004), this text covers T/C for 15 molecules.

This test concerns BDF1 mice, B16 melanoma ip, median survival T/C. The test can be described thus: NCI In Vivo Anticancer Drug Screen. Data for tumor model B16 Melanoma (intraperitoneal) in B6D2F1 (BDF1) mice. The conditions noted are these: endpoint: median survival time, higher = longer survival. In short, it runs like this:
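Each result divides a survival or tumor-size measurement in the compound-treated group by the same measurement in the vehicle group.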

Setting [1] is: dose: 25.0 mg/kg/injection, schedule: Q01DX009 (ip), vehicle: saline with Tween-80.
Setting [2] is: dose: 50.0 mg/kg/injection, schedule: Q01DX009 (ip), vehicle: saline with Tween-80.
Setting [3] is: dose: 100.0 mg/kg/injection, schedule: Q01DX009 (ip), vehicle: saline with Tween-80.
Where [4] appears, read: dose: 6.25 mg/kg/injection, schedule: Q01DX009 (ip), vehicle: saline with Tween-80.
Where [5] appears, read: dose: 100.0 mg/kg/injection, schedule: Q01DX009 (ip), vehicle: Klucel (hydroxypropylcellulose) (HPC).
Setting [6] is: dose: 200.0 mg/kg/injection, schedule: Q01DX009 (ip), vehicle: Klucel (hydroxypropylcellulose) (HPC).
Setting [7] is: dose: 400.0 mg/kg/injection, schedule: Q01DX009 (ip), vehicle: Klucel (hydroxypropylcellulose) (HPC).

Structures are written as SMILES. Values joined by “and” are separate entries in the source; they are usually repeats but may differ in a detail not shown here. Equal entries are not always repeated. Toxic doses and inconclusive results are not listed.

On to `CCCCCCCCCCCCCCCCc1ccc(CCCC(=O)O)cc1`, for which the T/C (dose: 25.0 mg/kg/injection, schedule: Q01DX009 (ip), vehicle: carboxymethylcellulose (CMC)) is 101 % of control; the T/C (dose: 50.0 mg/kg/injection, schedule: Q01DX009 (ip), vehicle: carboxymethylcellulose (CMC)) is 103 % of control; the T/C (dose: 100.0 mg/kg/injection, schedule: Q01DX009 (ip), vehicle: carboxymethylcellulose (CMC)) is 95 % of control.

For `CCOC(=O)c1ccc(OC(=O)Nc2ccccc2)cc1`, the T/C was 97 % of control under setting [1]; 97 % of control under setting [2]; 93 % of control and 95 % of control under setting [3].

For the molecule `Clc1ccc2c(c1)/C(=C\c1ccnc3ccccc13)c1cc(Cl)cc(Cl)c1-2`, the T/C under setting [4] is 93 % of control.

Regarding `CCOC(=O)c1ccc(NC(=O)Nc2ccc(Cl)cc2)cc1`, the T/C by setting is: under setting [5], 106 % of control; under setting [6], 106 % of control; under setting [7], 100 % of control.

As to `CCCCCCCCCCCC(=O)NC1CC(O[C@H]2C[C@](O)(C(=O)CO)Cc3c(O)c4c(c(O)c32)C(=O)c2c(OC)cccc2C4=O)OC(C)C1O` (some centres not stated), the T/C (dose: 12.5 mg/kg/injection, schedule: Q01DX001 (ip), vehicle: distilled water + Tween-80) was 119 % of control; the T/C (dose: 12.5 mg/kg/injection, schedule: Q01DX001 (ip), vehicle: water) was 195 % of control; the T/C (dose: 25.0 mg/kg/injection, schedule: Q01DX001 (ip), vehicle: distilled water + Tween-80) was 189 % of control; the T/C (dose: 25.0 mg/kg/injection, schedule: Q01DX001 (ip), vehicle: water) was 233 % of control; the T/C (dose: 50.0 mg/kg/injection, schedule: Q01DX001 (ip), vehicle: distilled water + Tween-80) is 195 % of control; the T/C (dose: 50.0 mg/kg/injection, schedule: Q01DX001 (ip), vehicle: water) is 257 % of control. Moreover, the T/C by setting is: (dose: 100.0 mg/kg/injection, schedule: Q01DX001 (ip), vehicle: distilled water + Tween-80) 258 % of control; (dose: 100.0 mg/kg/injection, schedule: Q01DX001 (ip), vehicle: water) 325 % of control; (dose: 200.0 mg/kg/injection, schedule: Q01DX001 (ip), vehicle: distilled water + Tween-80) 215 % of control; (dose: 200.0 mg/kg/injection, schedule: Q01DX001 (ip), vehicle: water) 104 % of control; (dose: 400.0 mg/kg/injection, schedule: Q01DX001 (ip), vehicle: distilled water + Tween-80) 231 % of control; (dose: 400.0 mg/kg/injection, schedule: Q01DX001 (ip), vehicle: water) 102 % of control.

Turning to `COc1cccc2c1C(=O)c1c(O)c3c(c(O)c1C2=O)C[C@@](O)(C(C)=O)C[C@@H]3OC1CC(N(C)C)C(O)C(C)O1` (some centres not stated), the T/C is 100 % of control (dose: 0.63 mg/kg/injection, schedule: Q01DX001 (ip), vehicle: water); 110 % of control and 112 % of control (dose: 1.25 mg/kg/injection, schedule: Q01DX001 (ip), vehicle: water); 104 % of control (dose: 2.5 mg/kg/injection, schedule: Q01DX001 (ip), vehicle: water); 98 % of control and 122 % of control (dose: 3.46 mg/kg/injection, schedule: Q04DX003 (ip), vehicle: water); 106 % of control and 117 % of control (dose: 5.76 mg/kg/injection, schedule: Q04DX003 (ip), vehicle: water); 104 % of control and 116 % of control (dose: 7.2 mg/kg/injection, schedule: Q01DX001 (ip), vehicle: water). Moreover, the T/C runs as follows: (dose: 9.6 mg/kg/injection, schedule: Q04DX003 (ip), vehicle: water) 102 % of control; (dose: 12.0 mg/kg/injection, schedule: Q01DX001 (ip), vehicle: water) 106 % of control and 121 % of control.

`COC(=O)/C=C/N1C(=O)c2ccccc2C1=O`: the T/C runs as follows: under setting [5], 91 % of control; (dose: 135.0 mg/kg/injection, schedule: Q01DX009 (ip), vehicle: Klucel (hydroxypropylcellulose) (HPC)) 90 % of control; under setting [6], 95 % of control; (dose: 300.0 mg/kg/injection, schedule: Q01DX009 (ip), vehicle: Klucel (hydroxypropylcellulose) (HPC)) 95 % of control; under setting [7], 91 % of control.

Take `Nc1nc(=S)c2[nH]c(N=Nc3ccc(S(=O)(=O)O)cc3)nc2[nH]1`: the T/C by setting is: (dose: 6.25 mg/kg/injection, schedule: Q04DX003 (ip), vehicle: saline) 107 % of control; (dose: 12.5 mg/kg/injection, schedule: Q04DX003 (ip), vehicle: saline) 109 % of control.

Regarding `CCOC(=O)C1CCCN(S(=O)(=O)c2ccc(C)cc2)c2ccccc2C1=O` (configuration not stated), the T/C by setting is: (dose: 100.0 mg/kg/injection, schedule: Q04DX003 (ip), vehicle: Klucel (hydroxypropylcellulose) (HPC)) 96 % of control; (dose: 200.0 mg/kg/injection, schedule: Q04DX003 (ip), vehicle: Klucel (hydroxypropylcellulose) (HPC)) 88 % of control; (dose: 400.0 mg/kg/injection, schedule: Q04DX003 (ip), vehicle: Klucel (hydroxypropylcellulose) (HPC)) 95 % of control.

For `O=C1C(CCSc2ccccc2)C(=O)N(c2ccccc2)C1c1ccccc1` (configuration not stated), the T/C under setting [5] was 116 % of control, the T/C under setting [6] was 113 % of control and the T/C under setting [7] is 110 % of control.

As for `CCC1=C[C@H]2CN(CCc3c([nH]c4ccccc34)[C@@](C(=O)OC)(c3cc4c(cc3OC)N(C)[C@H]3[C@@](O)(C(=O)OC)[C@H](OC(C)=O)[C@]5(CC)C=CCN6CC[C@]43[C@@H]65)C2)C1`, the T/C (dose: 0.05 mg/kg/injection, schedule: Q01DX009 (ip), vehicle: saline) is 116 % of control; the T/C (dose: 0.06 mg/kg/injection, schedule: Q01DX009 (ip), vehicle: water) is 100 % of control and 107 % of control; the T/C (dose: 0.1 mg/kg/injection, schedule: Q01DX009 (ip), vehicle: saline) was 116 % of control; the T/C (dose: 0.13 mg/kg/injection, schedule: Q01DX009 (ip), vehicle: water) was 103 % of control and 120 % of control; the T/C (dose: 0.25 mg/kg/injection, schedule: Q01DX009 (ip), vehicle: water) is 108 % of control; the T/C (dose: 0.8 mg/kg/injection, schedule: Q01DX009 (ip), vehicle: saline) is 181 % of control. The T/C (dose: 1.6 mg/kg/injection, schedule: Q01DX009 (ip), vehicle: saline) was 208 % of control and the T/C (dose: 4.0 mg/kg/injection, schedule: Q04DX003 (ip), vehicle: water) is 175 % of control.

As for `O=c1[nH]c(/C=C/c2ccc(Cl)cc2)nc(O)c1-c1ccc(Cl)cc1`, the T/C (dose: 75.0 mg/kg/injection, schedule: Q04DX003 (ip), vehicle: Klucel (hydroxypropylcellulose) (HPC)) was 110 % of control; the T/C (dose: 150.0 mg/kg/injection, schedule: Q04DX003 (ip), vehicle: Klucel (hydroxypropylcellulose) (HPC)) is 100 % of control; the T/C (dose: 300.0 mg/kg/injection, schedule: Q04DX003 (ip), vehicle: Klucel (hydroxypropylcellulose) (HPC)) was 87 % of control.

In the case of `O=C(Nc1ccccc1F)c1ccc(C(=O)Nc2ccccc2F)cc1`, the T/C (dose: 12.5 mg/kg/injection, schedule: Q01DX009 (ip), vehicle: Klucel (hydroxypropylcellulose) (HPC)) was 100 % of control; the T/C (dose: 25.0 mg/kg/injection, schedule: Q01DX009 (ip), vehicle: Klucel (hydroxypropylcellulose) (HPC)) is 105 % of control; the T/C (dose: 50.0 mg/kg/injection, schedule: Q01DX009 (ip), vehicle: Klucel (hydroxypropylcellulose) (HPC)) is 101 % of control.

As to `CCC(=O)O[C@H]1CC[C@H]2[C@@H]3[C@@H](C)CC4=CC(=O)CC[C@]4(C)[C@H]3CC[C@]12C`, the T/C was 98 % of control under setting [1]; 91 % of control under setting [2]; 87 % of control and 89 % of control under setting [3]; 100 % of control (dose: 100.0 mg/kg/injection, schedule: Q04DX003 (ip), vehicle: saline with Tween-80); 100 % of control (dose: 200.0 mg/kg/injection, schedule: Q04DX003 (ip), vehicle: saline with Tween-80); 86 % of control (dose: 400.0 mg/kg/injection, schedule: Q04DX003 (ip), vehicle: saline with Tween-80).

Turning to `Cc1c2cccc(Sc3ccccc3)c2c2c3c(cccc13)[S+](c1ccccc1)C2` (configuration not stated), the T/C is 104 % of control (dose: 0.78 mg/kg/injection, schedule: Q01DX009 (ip), vehicle: saline with Tween-80); 105 % of control (dose: 1.56 mg/kg/injection, schedule: Q01DX009 (ip), vehicle: saline with Tween-80); 102 % of control (dose: 3.13 mg/kg/injection, schedule: Q01DX009 (ip), vehicle: saline with Tween-80); 91 % of control and 100 % of control under setting [4].
